The test system of assay [1] is tau acetylation in primary neurons. The assay is described as follows: western blot of ac-tau, t-tau and p-tau in primary cortical neurons. Type of assay: cell-based, rat. The procedure: (§1) Primary cultures were established from cortices of Sprague-Dawley rat pups (Charles River Laboratories) or SIRT1^F/F mice on postnatal day 0 or 1. Purified cells were plated at 160,000 cells/ml in Neurobasal medium supplemented with B27 (Invitrogen) on poly-ornithine coated plates. All treatments were performed at 7-13 DIV in Neurobasal medium supplemented with N2 (Invitrogen) unless noted otherwise.
(§2) Cells or human or mouse brain tissues were lysed in RIPA buffer containing protease inhibitor cocktail (Sigma), 1 mM phenylmethyl sulfonyl fluoride (PMSF) (Sigma), phosphatase inhibitor cocktail (Roche), and HDAC inhibitors, including 5 mM nicotinamide (Sigma) and 1 μM trichostatin A (Sigma). After sonication, lysates from human or mouse brain tissues were centrifuged at 170,000 g at 4° C. for 15 min and at 18,000 g at 4° C. for 10 min. Supernatants were collected and analyzed by western blot. Bands in immunoblots were visualized by enhanced chemiluminescence (Pierce) and quantified by densitometry and Quantity One 4.0 software (Bio-Rad, Hercules, Calif.).
For orientation: A western blot detects proteins with antibodies after separation by electrophoresis.

For assay [2], the system named is tau transcripts. In words: real-time RT-PCR of tau transcripts in primary neurons. The format is cell-based, rat. Conditions: treatment for 8 h. The procedure: as §1
The subject of assay [3] is AT8-positive p-tau in primary neurons expressing hTauP301L. In words: p-tau in primary neurons expressing hTauP301L. Type of assay: cell-based. Conditions: 20 μM, DIV=12. The procedure: as §1
Lentivirus was generated, purified, and used for infection as described. Chen et al. (2005) supra. Recombinant lentivirus was produced by co-transfection of the shuttle vector (FUGW), two helper plasmids, delta8.9 packaging vector, and VSV-G envelope vector into 293T cells and purified by ultracentrifugation. Viral titers were measured by p24 enzyme-linked immunosorbent assays at the Gladstone-UCSF Laboratory of Clinical Virology.
Cells or human or mouse brain tissues were lysed in RIPA buffer containing protease inhibitor cocktail (Sigma), 1 mM phenylmethyl sulfonyl fluoride (PMSF) (Sigma), phosphatase inhibitor cocktail (Roche), and HDAC inhibitors, including 5 mM nicotinamide (Sigma) and 1 μM trichostatin A (Sigma). […] Supernatants were collected and analyzed by western blot. Bands in immunoblots were visualized by enhanced chemiluminescence (Pierce) and quantified by densitometry and Quantity One 4.0 software (Bio-Rad, Hercules, Calif.).

The subject of assay [4] is six other acetyltransferases (serotonin N-acetyltransferase, pCAF, GCN5, Rtt109, Sas, MOZ). Conditions: C646 at 10 μM, cell-free; cited from earlier work.
The test system of assay [5] is tau ubiquitination in HEK293T cells. In words: in vivo ubiquitination assay in HEK293T cells. Type of assay: cell-based, human. As for the experimental part: Procedures were modified from a published study. Oh et al. (2009) Nat Cell Biol 11:295. HEK293T cells were transfected with expression vectors encoding FLAG-tagged human tau and HA-ubiquitin with or without Myc-SIRT1 (wildtype or H363Y mutant). After 2 h of incubation, cells were treated with EX527, resveratrol, or dimethylsulfoxide (DMSO) in Dulbecco's modified Eagle's medium and incubated for 20 h. MG-132 (20 μM) was added and incubated for 4 h. Cells were lysed in ubiquitination buffer (20 mM Tris-HCl, pH 7.5, 0.1 mM EDTA, 0.2% Triton X-100, 150 mM NaCl, and protease inhibitor cocktail). Supernatant proteins were immunoprecipitated with FLAG M2 agarose beads (Sigma) for 3 h at 4° C. Reactions were washed at least three times with ubiquitination buffer and analyzed by SDS-PAGE and western blot with anti-HA antibody (Cell Signaling Technology).

Assay [6] has as its system turnover of endogenous tau in primary neurons. In words: tau turnover in primary neurons treated with cycloheximide. Type of assay: cell-based, rat. As for the experimental part:
as §1, §2
It was then directly examined whether enhancing acetylation of tau slows the turnover of endogenous tau. Primary neurons were treated with EX527 to enhance tau acetylation and with cycloheximide (CHX) to inhibit translation of new proteins. […] Consistent with this notion, ac-tau appears to be degraded slower than that of t-tau.

The mark [7] stands for this setting: EX527 50 μM, rat primary neurons DIV=10.

For the molecule `CC1=NN(c2ccc(C(=O)O)cc2)C(=O)/C1=C\c1ccc(-c2cc(C)c(C)cc2[N+](=O)[O-])o1` [Compound C646], the t-tau levels result in assay [1] (20 μM, 2 h, primary cortical neurons DIV=9) is “without affecting”. Further, the levels of t-tau result is recorded as “remained unchanged” in assay [1] (20 μM, 8 h, primary rat cortical neurons) and “lowered” in assay [1] (20 μM, 20 h, primary cortical neurons). Besides, the “tau phosphorylated at serine 202 (AT8-positive p-tau)” value in assay [1] (20 μM, within 2 h, primary cortical neurons) is reported as “abolished”. Moreover, in assay [1] (20 μM, within 2 h, primary cortical neurons DIV=9), the ac-tau result is recorded as “eliminated”. Also, in assay [1] (20 μM, within 8 h, primary rat cortical neurons), the levels of ac-tau result is “drastically reduced”. Further, the tau transcripts entry in assay [2] is recorded as “did not suppress”. In addition, in assay [3], the AT8-positive p-tau entry is given as “diminished”. For the same molecule, the “inhibition of the six other acetyltransferases” value in assay [4] is less than 10%.

As for `NC(=O)C1CCCc2c1[nH]c1ccc(Cl)cc21` (stereo not shown) [EX527], in assay [1] (setting [7]), the AT8-positive p-tau entry is recorded as “markedly increased”, the ac-tau entry was “markedly increased”, the “levels of ac-tau relative to t-tau” value is on record as “significantly increased” and the “levels of p-tau relative to t-tau” value is on record as “significantly increased”. The t-tau entry in assay [1] (setting [7]) was “markedly increased”. The ac-tau levels entry in assay [5] (1-50 μM, HEK293T cells) is “elevated”. Further, in assay [5] (1-50 μM, HEK293T cells, with MG132), the polyubiquitination of tau result was “prevented polyubiquitination of tau in a dose-dependent manner”. The turnover of ac-tau entry in assay [6] (10 μM, CHX, primary neurons) is “blocked the turnover”. In assay [6] (50 μM, CHX, primary neurons), the accumulation of ac-tau entry is on record as “more pronounced accumulation”. Further, the “half-life of t-tau (tau turnover)” value in assay [6] (10-50 μM, CHX 0-8 h, rat primary neurons DIV=8) is on record as “increased the half-life of t-tau in a dose-dependent manner”. The “degradation of AT8-positive p-tau” value in assay [6] (10-50 μM, CHX, primary neurons) is “blocked the degradation”.

On to `Oc1ccc(C=Cc2cc(O)cc(O)c2)cc1` [resveratrol], for which the tau ubiquitination entry is listed as “not those with H363Y mutant” in assay [5] (HEK293T cells transfected with SIRT1 H363Y mutant) and “significantly increased” in assay [5] (HEK293T cells transfected with wildtype SIRT1).

Source of the values: patent US9040521B2, “Methods and compositions for modulating tau levels” (THE J. DAVID GLADSTONE INSTITUTES, priority 2009, dated 2015).
